Measured values reported in ChEMBL document CHEMBL1140679, “The identification of potent, selective, and bioavailable cathepsin S inhibitors” (Bioorg Med Chem Lett, 2007).

Legend:
Cathepsin S [1] = target: Cathepsin S (Homo sapiens, UniProt P25774); assay: Inhibition of human cathepsin S
Cathepsin K [2] = target: T1, Cathepsin K (Homo sapiens, UniProt P43235); assay: Inhibition of human cathepsin K
T1 sequence (P43235 whole entry): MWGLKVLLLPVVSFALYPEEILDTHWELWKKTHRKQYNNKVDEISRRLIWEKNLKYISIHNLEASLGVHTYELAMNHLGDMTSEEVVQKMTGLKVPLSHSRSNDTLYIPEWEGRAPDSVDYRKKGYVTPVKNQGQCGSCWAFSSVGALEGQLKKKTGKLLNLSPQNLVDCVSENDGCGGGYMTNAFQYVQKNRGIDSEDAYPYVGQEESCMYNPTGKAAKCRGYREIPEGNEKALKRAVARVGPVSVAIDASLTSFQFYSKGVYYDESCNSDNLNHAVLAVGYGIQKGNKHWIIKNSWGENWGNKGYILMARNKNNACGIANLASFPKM

Cathepsin B [3] = target: Cathepsin B (Homo sapiens, UniProt P07858); assay: Inhibition of human cathepsin B
Procathepsin L [4] = target: Procathepsin L (Homo sapiens, UniProt P07711); assay: Inhibition of human cathepsin L
Cathepsin S [5] = target: Cathepsin S (Mus musculus, UniProt O70370); assay: Inhibition of mouse recombinant cathepsin S
Cathepsin K [6] = target: T2, Cathepsin K (Mus musculus, UniProt P55097); assay: Inhibition of mouse recombinant cathepsin K
T2 sequence (P55097 whole entry): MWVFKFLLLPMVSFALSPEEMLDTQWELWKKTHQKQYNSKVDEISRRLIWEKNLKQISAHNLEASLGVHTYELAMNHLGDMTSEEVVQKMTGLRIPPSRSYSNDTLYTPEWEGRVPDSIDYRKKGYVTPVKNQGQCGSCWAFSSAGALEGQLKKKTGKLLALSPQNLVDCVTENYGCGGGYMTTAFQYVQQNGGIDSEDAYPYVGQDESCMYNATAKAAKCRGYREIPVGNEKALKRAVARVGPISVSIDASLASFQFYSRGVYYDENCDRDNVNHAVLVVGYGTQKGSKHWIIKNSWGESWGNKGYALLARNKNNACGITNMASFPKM

Cathepsin B [7] = target: Cathepsin B (Mus musculus, UniProt P10605); assay: Inhibition of mouse recombinant cathepsin B
Cathepsin S [8] = target: Cathepsin S (Rattus norvegicus, UniProt Q02765); assay: Inhibition of rat spleen cathepsin S; format: tissue-based
Cathepsin B [9] = target: Cathepsin B (Rattus norvegicus, UniProt P00787); assay: Inhibition of rat liver lysosomal cathepsin B
Procathepsin L [10] = target: T3, Procathepsin L (Mus musculus, UniProt P06797); assay: Inhibition of mouse recombinant cathepsin L
T3 sequence (P06797 whole entry): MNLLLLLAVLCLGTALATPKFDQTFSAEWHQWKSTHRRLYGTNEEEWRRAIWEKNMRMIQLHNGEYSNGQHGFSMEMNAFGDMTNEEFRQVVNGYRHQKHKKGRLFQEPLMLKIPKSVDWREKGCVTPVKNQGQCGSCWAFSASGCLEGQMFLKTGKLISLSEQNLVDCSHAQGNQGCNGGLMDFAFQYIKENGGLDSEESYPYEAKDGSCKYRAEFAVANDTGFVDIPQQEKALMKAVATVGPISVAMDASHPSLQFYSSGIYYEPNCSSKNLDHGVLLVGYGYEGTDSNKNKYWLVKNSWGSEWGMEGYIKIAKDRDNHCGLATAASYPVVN

Procathepsin L [11] = target: T4, Procathepsin L (Rattus norvegicus, UniProt P07154); assay: Inhibition of rat liver lysosomal cathepsin L
T4 sequence (P07154 whole entry): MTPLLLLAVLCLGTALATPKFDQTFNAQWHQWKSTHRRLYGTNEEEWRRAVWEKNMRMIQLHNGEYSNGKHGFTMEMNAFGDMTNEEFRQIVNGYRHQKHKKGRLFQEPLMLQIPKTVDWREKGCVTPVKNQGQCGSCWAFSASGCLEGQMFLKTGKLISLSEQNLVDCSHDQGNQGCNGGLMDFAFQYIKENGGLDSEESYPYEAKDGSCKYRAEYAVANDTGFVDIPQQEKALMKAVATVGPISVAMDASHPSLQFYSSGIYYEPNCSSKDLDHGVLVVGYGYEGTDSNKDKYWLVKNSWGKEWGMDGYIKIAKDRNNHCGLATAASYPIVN

[12] = Bioavailability in Sprague-Dawley rat; format: ADME, organism-based; details: in vivo
[13] = Cmax in Sprague-Dawley rat; format: ADME, organism-based; details: in vivo
[14] = Half life in Sprague-Dawley rat; format: ADME, organism-based; details: in vivo
Mus musculus [15] = assay: AUC (0 to 24 hrs) in C57BL/6 mouse at 5 mg/kg, po; format: ADME, organism-based, Plasma; set-up: time < 24 hr, dose 5 mg/kg, route oral; details: in vivo
Mus musculus [16] = assay: AUC (0 to 24 hrs) in C57BL/6 mouse at 50 mg/kg, po; format: ADME, organism-based, Plasma; set-up: time < 24 hr, dose 50 mg/kg, route oral; details: in vivo
[17] = Inhibition of antigen presentation in mouse B cells; format: functional, cell-based
Hepatocyte = assay: Metabolic stability in rat hepatocytes after 2 hrs; format: ADME, cell-based
Mus musculus [18] = assay: AUC (0 to 24 hrs) in C57BL/6 mouse assessed as (R)-N-(1-cyanocyclopropyl)-3-(methylsulfonyl)-2-((S)-2,2,2-trifluoro-1-(4-fluorophenyl)ethylamino)propanamide levels at 10 mg/kg, po; format: ADME, organism-based, Plasma; set-up: time < 24 hr, dose 10 mg/kg, route oral; details: in vivo
Mus musculus [19] = assay: AUC (0 to 24 hrs) in C57BL/6 mouse assessed as (R)-N-(1-cyanocyclopropyl)-3-(methylsulfonyl)-2-((S)-2,2,2-trifluoro-1-(4-fluorophenyl)ethylamino)propanamide levels at 50 mg/kg, po; format: ADME, organism-based, Plasma; set-up: time < 24 hr, dose 50 mg/kg, route oral; details: in vivo
Mus musculus [20] = assay: AUC (0 to 24 hrs) in C57BL/6 mouse assessed as (R)-N-(1-cyanocyclopropyl)-3-(methylsulfonyl)-2-((S)-2,2,2-trifluoro-1-(4-fluorophenyl)ethylamino)propanamide levels at 150 mg/kg, po; format: ADME, organism-based, Plasma; set-up: time < 24 hr, dose 150 mg/kg, route oral; details: in vivo
Mus musculus [21] = organism: Mus musculus; assay: AUC (0 to 24 hrs) in C57BL/6 mouse assessed as (R)-N-(1-cyanocyclopropyl)-3-(methylsulfonyl)-2-((S)-2,2,2-trifluoro-1-(4-fluorophenyl)ethylamino)propanamide levels at 0.01 w/w % after 5 days; format: ADME, organism-based, Plasma; set-up: time < 24 hr; details: in vivo
Mus musculus [22] = organism: Mus musculus; assay: AUC (0 to 24 hrs) in C57BL/6 mouse assessed as (R)-N-(1-cyanocyclopropyl)-3-(methylsulfonyl)-2-((S)-2,2,2-trifluoro-1-(4-fluorophenyl)ethylamino)propanamide levels at 0.05 w/w % after 5 days; format: ADME, organism-based, Plasma; set-up: time < 24 hr; details: in vivo
Mus musculus [23] = organism: Mus musculus; assay: AUC (0 to 24 hrs) in C57BL/6 mouse assessed as (R)-N-(1-cyanocyclopropyl)-3-(methylsulfonyl)-2-((S)-2,2,2-trifluoro-1-(4-fluorophenyl)ethylamino)propanamide levels at 0.25 w/w % after 5 days; format: ADME, organism-based, Plasma; set-up: time < 24 hr; details: in vivo
Mus musculus [24] = organism: Mus musculus; assay: Drug level in C57BL/6 mouse blood at 0.01 w/w %; format: ADME, organism-based; details: in vivo, read-out: Drug uptake
Mus musculus [25] = organism: Mus musculus; assay: Drug level in C57BL/6 mouse blood at 0.05 w/w %; format: ADME, organism-based; details: in vivo, read-out: Drug uptake
Mus musculus [26] = organism: Mus musculus; assay: Drug level in C57BL/6 mouse blood at 0.25 w/w %; format: ADME, organism-based; details: in vivo, read-out: Drug uptake
Mus musculus [27] = assay: Increase in p10 fragment accumulation in C57BL/6 mouse at 3 mg/kg/day for 5 days relative to control; format: functional

Sequence of Cathepsin S (Homo sapiens, UniProt P25774) (P25774 whole entry): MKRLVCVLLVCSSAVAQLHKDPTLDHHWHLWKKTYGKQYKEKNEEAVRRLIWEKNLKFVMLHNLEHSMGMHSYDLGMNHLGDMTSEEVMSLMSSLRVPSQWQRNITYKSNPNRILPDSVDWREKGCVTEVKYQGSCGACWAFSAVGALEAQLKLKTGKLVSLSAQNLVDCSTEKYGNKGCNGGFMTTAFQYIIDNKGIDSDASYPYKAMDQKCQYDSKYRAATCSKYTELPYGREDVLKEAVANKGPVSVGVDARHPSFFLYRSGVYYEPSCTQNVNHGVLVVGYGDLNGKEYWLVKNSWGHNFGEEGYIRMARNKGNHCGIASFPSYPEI
Sequence of Procathepsin L (Homo sapiens, UniProt P07711) (P07711 whole entry): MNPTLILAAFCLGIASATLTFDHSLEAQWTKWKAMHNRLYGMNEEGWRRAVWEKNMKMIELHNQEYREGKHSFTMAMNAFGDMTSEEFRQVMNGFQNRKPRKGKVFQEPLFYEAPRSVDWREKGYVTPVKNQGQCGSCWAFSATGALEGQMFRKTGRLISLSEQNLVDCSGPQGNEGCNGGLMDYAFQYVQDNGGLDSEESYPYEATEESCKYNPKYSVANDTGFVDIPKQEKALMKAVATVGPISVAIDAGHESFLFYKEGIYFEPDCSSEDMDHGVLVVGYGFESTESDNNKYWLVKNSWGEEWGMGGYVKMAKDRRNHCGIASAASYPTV
Sequence of Cathepsin S (Rattus norvegicus, UniProt Q02765) (Q02765 whole entry): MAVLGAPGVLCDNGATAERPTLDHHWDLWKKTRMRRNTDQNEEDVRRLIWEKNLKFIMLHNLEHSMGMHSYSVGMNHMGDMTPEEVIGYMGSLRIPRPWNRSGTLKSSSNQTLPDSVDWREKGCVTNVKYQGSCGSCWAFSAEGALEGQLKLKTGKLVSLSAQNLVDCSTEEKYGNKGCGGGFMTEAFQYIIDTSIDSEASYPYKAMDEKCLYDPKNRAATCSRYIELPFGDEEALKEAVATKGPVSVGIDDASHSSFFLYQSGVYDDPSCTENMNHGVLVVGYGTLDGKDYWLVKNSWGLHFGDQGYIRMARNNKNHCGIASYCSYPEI
Sequence of Cathepsin B (Rattus norvegicus, UniProt P00787) (P00787 whole entry): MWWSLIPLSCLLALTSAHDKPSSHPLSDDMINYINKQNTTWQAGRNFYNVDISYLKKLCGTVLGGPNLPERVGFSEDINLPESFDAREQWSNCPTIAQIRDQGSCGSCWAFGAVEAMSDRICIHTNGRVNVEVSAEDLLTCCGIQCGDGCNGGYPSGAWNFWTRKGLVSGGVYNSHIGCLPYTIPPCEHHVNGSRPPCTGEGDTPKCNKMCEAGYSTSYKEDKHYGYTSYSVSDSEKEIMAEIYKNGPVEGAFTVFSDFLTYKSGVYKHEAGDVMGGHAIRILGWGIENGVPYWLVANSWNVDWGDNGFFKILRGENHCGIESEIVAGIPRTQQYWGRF
Sequence of Cathepsin B (Mus musculus, UniProt P10605) (P10605 whole entry): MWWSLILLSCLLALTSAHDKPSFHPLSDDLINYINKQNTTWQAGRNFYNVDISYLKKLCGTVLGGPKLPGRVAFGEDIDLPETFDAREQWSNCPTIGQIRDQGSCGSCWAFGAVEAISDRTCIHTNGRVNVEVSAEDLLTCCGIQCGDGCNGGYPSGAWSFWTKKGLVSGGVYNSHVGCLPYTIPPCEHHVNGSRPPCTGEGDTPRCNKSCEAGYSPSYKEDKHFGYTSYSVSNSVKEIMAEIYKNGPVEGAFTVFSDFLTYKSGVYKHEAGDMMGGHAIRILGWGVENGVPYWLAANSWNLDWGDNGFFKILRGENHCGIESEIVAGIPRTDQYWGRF
Sequence of Cathepsin S (Mus musculus, UniProt O70370) (O70370 whole entry): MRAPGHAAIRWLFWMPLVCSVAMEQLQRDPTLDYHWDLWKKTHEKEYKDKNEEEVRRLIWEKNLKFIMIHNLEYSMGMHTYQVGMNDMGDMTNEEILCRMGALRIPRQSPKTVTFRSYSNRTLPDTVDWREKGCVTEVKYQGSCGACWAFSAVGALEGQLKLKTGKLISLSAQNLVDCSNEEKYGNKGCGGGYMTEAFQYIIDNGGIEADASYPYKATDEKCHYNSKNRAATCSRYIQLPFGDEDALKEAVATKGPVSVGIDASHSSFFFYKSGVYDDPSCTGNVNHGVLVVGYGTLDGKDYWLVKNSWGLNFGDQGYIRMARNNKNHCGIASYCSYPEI

Row | IC50 (Cathepsin S [1]) | IC50 (Cathepsin K [2]) | IC50 (Cathepsin B [3]) | IC50 (Procathepsin L [4]) | IC50 (Cathepsin S [5]) | IC50 (Cathepsin K [6]) | IC50 (Cathepsin B [7]) | IC50 (Cathepsin S [8]) | IC50 (Cathepsin B [9]) | IC50 (Procathepsin L [10]) | IC50 (Procathepsin L [11]) | Structure (SMILES) | also measured
1 | 1.8 nM | 405 nM | 1100 nM | 1010 nM | 0.6 nM | 1650 nM | 233 nM | 426 nM | 319 nM | 3040 nM | 3160 nM | CS(=O)(=O)C[C@H](N[C@@H](c1ccc(F)cc1)C(F)(F)F)C(=O)NC1(C#N)CC1 | bioavailability [12]: 48%; Cmax [13]: 6.3 µM; half-life [14]: 5.2 h; AUC (Mus musculus [15]): 43 µM; AUC (Mus musculus [16]): 111 µM; IC50 [17]: 44 nM; Stability (Hepatocyte): Stable
2 | 729 nM | 1120 nM | 9720 nM | > 10000 nM | 96 nM | 5840 nM | 6700 nM | > 10000 nM | > 10000 nM | > 10000 nM | > 10000 nM | C[S+]([O-])C[C@H](N[C@@H](c1ccc(F)cc1)C(F)(F)F)C(=O)NC1(C#N)CC1 (some centres undefined) | AUC (Mus musculus [18]): 63 µM; AUC (Mus musculus [19]): 274 µM; AUC (Mus musculus [20]): 750 µM; AUC (Mus musculus [21]): 7 µM; AUC (Mus musculus [22]): 31 µM; AUC (Mus musculus [23]): 87 µM; concentration (Mus musculus [24]): 1 µM; concentration (Mus musculus [25]): 6 µM; concentration (Mus musculus [26]): 16 µM; Activity (Mus musculus [27]): 24
